# In patent US20240327356A1, “PYRIMIDINE BASED RAS MODULATORS AND USES THEREOF” (QUANTA THERAPEUTICS, INC., priority 2021, published 2024):
# What was measured:
# [1] = test system: Phospho-ERK (Thr202/Tyr204) in MiaPaCa-2 cells; test: pERK inhibition in MiaPaca-2 cell line (HTRF); format: cell-based; details: Homo sapiens, MIA PaCa-2, 1 hour incubation with compound
# Method: MiaPaCa-2 cells (ATCC CRL-1420) were cultured in high glucose DMEM (Gibco 11965092) containing 10% fetal bovine serum (Gibco 1993708) and 1× Penicillin/Streptomycin, at 37° C. in a humid atmosphere of 5% CO2 in the air. Cells were plated in tissue-culture treated 96-well plates at a density of 10,000 cells/well and allowed to attach for 16 hours. The medium was then removed, and diluted compounds were added in a final concentration of 0.5% DMSO. After 1 hour of incubation, cells were lysed by the lysis buffer supplied with the Phospho-ERK (Thr202/Tyr204) cellular HTRF kit (Cisbio 64ERKPEH) and transferred to a 384-well low-volume white plate (PerkinElmer 6008280). The cell lysates were treated with the detection reagents supplied with the HTRF kit for 4 hours at ambient temperature in darkness. Two fluorescence intensities at the wavelengths (665 and 620 nm) were measured by the Envision plate reader (Perkin Elmer), and the data were processed and fitted to a 4-parameter logistic model for IC50 calculation (GraphPad Prism 9).
# [2] = test system: pERK (ERK phospho-T202/Y204) in SW-480 cells; test: pERK inhibition in SW-480 cell line (HTRF); format: cell-based; details: Homo sapiens, SW480, 1 hour incubation with compound
# Method: SW-480 cells were cultured in Leibovitz's L15 (Gibco Cat. No. 11415064), supplemented with 10% fetal bovine serum (Gibco, Cat. No. 1993708), and 1% penicillin and streptomycin. Cells were grown at 37° C., under atmospheric conditions without additional CO2. Cells were seeded into a 96-well tissue-culture treated plate (Greiner, Cat. No. 655180) at a density of 30,000 cell per well, and allowed to adhere for 16 hours before the media was removed, and cells were treated with compounds diluted into culture media at the indicated concentrations. After 1 hour of incubation in the presence of compound, cells were harvested to measure pERK levels using the lysis buffer supplied with the Homogenous Time Resolved Fluorescence pERK kit (HTRF, Cisbio Advance ERK phospho-T202/Y204, Cat. No. 64AERPEG). Lysates were transferred to a 384-well low-volume white plate (PerkinElmer, Cat. No. 6008280) and then treated with the detection reagents supplied by the HTRF kit, according to the “2-plate” protocol supplied by the manufacturer, and incubated for 4-hours at ambient temperature in darkness. Assay plates were read at two fluorescent wavelengths (665 nm and 620 nm) using an Envision plate reader (Perkin Elmer) and data was processed and fitted to a 4-parameter logistic model using Graphpad Prism 8.0 to calculate IC50 values.
# [3] = biological target: KRAS^G12D-FMe.RAF1^RBDCRD complex (Homo sapiens, UniProt P01116, G12D); test: SHG assay: binding to bilayer-tethered KRAS G12D/RAF1 complex; details: GppNHp-loaded complex on PS bilayer; compound 0.027-40 μM, monitored over 60 min
# Method: Compounds suspected to carry intrinsic SHG activity were tested in the presence of an unlabeled KRAS^G12D-FMe.RAF1^RBDCRD complex to monitor binding. PS bilayer was prepared from PS-enriched small unilamellar vesicles (SUVs) purchased from Biodesy, Inc. The concentrated SUVs were diluted in TBS buffer containing 5 mM CaCl2 and incubated on a glass-bottom 384-well Biodesy Delta™ assay plate to allow bilayer formation. Equimolar amounts of GppNHp-loaded KRAS^G12D-FMe and RAF1^RBDCRD were mixed and incubated together on PS bilayer overnight at 4° C. The following day, untethered protein was removed by washing with assay buffer (20 mM Hepes, pH 7.4, […], 1 mM TCEP, 5 μM GppNHp). The SHG signal produced by bilayer-tethered complex was ready using the Biodesy Delta™ platform where each well was pulsed with an 800 nm laser and the resulting second harmonic signal intensity at 400 nm was collected. Compounds were diluted into the same assay buffer and applied to the complex at a final concentration range spanning 0.027 μM-40 μM and the SHG intensity of each well was monitored at 5 minute intervals over a 60 minute time period.
IC50 [1],IC50 [2],EC50 [3],SMILES
1 to 10 µM,1 to 10 µM,1 to 10 µM,Cc1ccc(-c2ncc(CNC(=O)C3(F)CC3)c(N3CCC(CN)C3)n2)cc1Cl (stereo not drawn) [Compound 59]
1 to 10 µM,,1 to 10 µM,Cc1ccc(-c2ncc(CNS(=O)(=O)C3CC3)c(N3CCC(CN)C3)n2)cc1Cl (stereo not drawn) [Compound 82]
1 to 10 µM,,10 to 50 µM,Cc1ccc(-c2ncc(CNC(=O)C3(F)CC3)c(OC3CCN(C)C3)n2)cc1Cl (stereo not drawn) [Compound 89]
1 to 10 µM,,1 to 10 µM,N[C@H]1CN(c2nc(-c3ccc(Cl)c(C(F)(F)F)c3)ncc2C2=CCNC2)C[C@@H]1O [Compound 61]
1 to 10 µM,,0.1 to 1 µM,"NCCOc1nc(-c2ccc(Cl)c(C(F)(F)F)c2)ncc1C1=CCNC1 [Compound 34, 2-[2-[4-chloro-3-(trifluoromethyl)phenyl]-5-(2,5-dihydro-1H-pyrrol-3-yl)pyrimidin-4-yl]oxyethanamine]"
1 to 10 µM,,1 to 10 µM,"NCC1CCN(c2nc(-c3ccc(C(F)(F)F)c(Cl)c3)ncc2N2CCNC2=O)C1 (stereo not drawn) [Compound 109, 1-[4-[3-(aminomethyl)pyrrolidin-1-yl]-2-[3-chloro-4-(trifluoromethyl)phenyl]pyrimidin-5-yl]imidazolidin-2-one]"
1 to 10 µM,,10 to 50 µM,N#Cc1cc(-c2ncc(C3=CCN(C(=O)C4(C#N)CC4)C3)c(N3CCC(CN)C3)n2)ccc1Cl (stereo not drawn) [Compound 30]
1 to 10 µM,,10 to 50 µM,CCOC(=O)NCc1cnc(-c2ccc(C)c(Cl)c2)nc1N1CCC(CN)C1 (stereo not drawn) [Compound 118]
10 to 50 µM,,1 to 10 µM,NCC1CCN(c2nc(-c3ccc(C(F)(F)F)cc3F)ncc2CNC(=O)C2(CN)CC2)C1 (stereo not drawn) [Compound 25]
1 to 10 µM,,1 to 10 µM,Cc1ccc(-c2ncc(CNC(=O)C3(F)CNC3)c(N3CCC(CN)C3)n2)cc1Cl (stereo not drawn) [Compound 102]
1 to 10 µM,1 to 10 µM,,Cc1ccc(-c2ncc(CNC(=O)C3(F)CC3)c(N3CC[C@@H](CN)C3)n2)cc1Cl [Compound 72]
1 to 10 µM,,1 to 10 µM,"NCC1CCN(c2nc(-c3ccc(Cl)c(C(F)(F)F)c3)ncc2CNCCO)C1 (stereo not drawn) [Compound 49, 2-[[4-[3-(aminomethyl)pyrrolidin-1-yl]-2-[4-chloro-3-(trifluoromethyl)phenyl]pyrimidin-5-yl]methylamino]ethanol]"
1 to 10 µM,,1 to 10 µM,N#CC1(C(=O)NCc2cnc(-c3ccc(Cl)c(C(F)(F)F)c3)nc2N2CCC(N)CC2)CC1 [Compound 48]
10 to 50 µM,,10 to 50 µM,NCC1CCN(c2nc(-c3ccc(Cl)c(C(F)(F)F)c3)ncc2[N+](=O)[O-])C1 (stereo not drawn) [Compound 56]
1 to 10 µM,,10 to 50 µM,Cc1ccc(-c2ncc(CNC(=O)C3(C)COC3)c(N3CCC(CN)C3)n2)cc1Cl (stereo not drawn) [Compound 80]
1 to 10 µM,,10 to 50 µM,N#CC1(C(=O)NCc2cnc(-c3ccc(C(F)(F)F)cc3F)nc2N2CCC(CN)C2)CC1 (stereo not drawn) [Compound 28]
1 to 10 µM,,1 to 10 µM,N#CC1(C(=O)N2CC=C(c3cnc(-c4ccc(Cl)c(C(F)(F)F)c4)nc3OCCN)C2)CC1 [Compound 36]
1 to 10 µM,,1 to 10 µM,N#CC1(C(=O)NCc2cnc(-c3ccc(Cl)c(C(F)(F)F)c3)nc2N2CCOC(CN)C2)CC1 (stereo not drawn) [Compound 51]
1 to 10 µM,,10 to 50 µM,N#CC1(C(=O)NCc2cnc(-c3ccc(Cl)c(C(F)(F)F)c3)nc2N2CCC[C@H]2CN)CC1 [Compound 55]
1 to 10 µM,,1 to 10 µM,Cc1ccc(-c2ncc(CNC(=O)C3(F)CC3)c(N3CCC(N)CC3)n2)cc1Cl [Compound 92]
0.1 to 1 µM,,1 to 10 µM,Cc1ccc(-c2ncc(CNC(=O)C3(C#N)CC3)c(N3CC[C@H](N)C3)n2)cc1Cl [Compound 65]
1 to 10 µM,,1 to 10 µM,N#CC1(C(=O)NCc2cnc(-c3ccc(Cl)c(C(F)(F)F)c3)nc2OCCN)CC1 [Compound 46]

IC50 [1],IC50 [2],EC50 [3],SMILES
1 to 10 µM,,10 to 50 µM,Cc1ccc(-c2ncc(NC(=O)C3(C#N)CC3)c(N3CCC(CN)C3)n2)cc1Cl (stereo not drawn) [Compound 110]
1 to 10 µM,,1 to 10 µM,Cc1ccc(-c2ncc(CNC(=O)C3(C#N)CC3)c(C3=CCC(N)CC3)n2)cc1Cl (stereo not drawn) [Compound 77]
10 to 50 µM,,1 to 10 µM,NCc1cnc(-c2ccc(Cl)c(C(F)(F)F)c2)nc1N1CC[C@@H](CN)C1 [Compound 1]
1 to 10 µM,,1 to 10 µM,"NCC1CCN(c2nc(-c3ccc(C(F)(F)F)cc3F)ncc2CNC(=O)Nc2ccccc2)C1 (stereo not drawn) [Compound 19, 1-[[4-[3-(aminomethyl)pyrrolidin-1-yl]-2-[2-fluoro-4-(trifluoromethyl)phenyl]pyrimidin-5-yl]methyl]-3-phenyl-urea]"
1 to 10 µM,,1 to 10 µM,N#CC1(C(=O)NCc2cnc(-c3ccc(Cl)c(C(F)(F)F)c3)nc2OC2CC(N)C2)CC1 (stereo not drawn) [Compound 50]
10 to 50 µM,,1 to 10 µM,NCC1CCN(c2nc(-c3ccc(Cl)c(C(F)(F)F)c3)ncc2CNC(=O)c2ccccc2)C1 (stereo not drawn) [Compound 9]
1 to 10 µM,,< 0.1 µM,NC[C@@H]1CCCN1c1nc(-c2ccc(Cl)c(C(F)(F)F)c2)ncc1C1=CCNC1 [Compound 31]
1 to 10 µM,,1 to 10 µM,NC[C@H]1CCCN1c1nc(-c2ccc(Cl)c(C(F)(F)F)c2)ncc1C1=CCNC1 [Compound 33]
1 to 10 µM,,1 to 10 µM,Cc1ccc(-c2ncc(CN3CCCC3=O)c(N3CCC(CN)C3)n2)cc1Cl (stereo not drawn) [Compound 122]
1 to 10 µM,,1 to 10 µM,Cc1ccc(-c2ncc(CN3CCNC3=O)c(N3CCC(CN)C3)n2)cc1Cl (stereo not drawn) [Compound 119]
1 to 10 µM,,1 to 10 µM,C=C(C)C(=O)NCc1cnc(-c2ccc(C)c(Cl)c2)nc1N1CCC(CN)C1 (stereo not drawn) [Compound 88]
1 to 10 µM,,1 to 10 µM,CN1CCN(c2nc(-c3ccc(Cl)c(C(F)(F)F)c3)ncc2CNC(=O)C2(C#N)CC2)CC1 [Compound 71]
1 to 10 µM,,1 to 10 µM,N#CC1(C(=O)NCc2cnc(-c3ccc(Cl)c(C(F)(F)F)c3)nc2N2CCNCC2)CC1 [Compound 54]
1 to 10 µM,,1 to 10 µM,COC(=O)NCc1cnc(-c2ccc(C)c(Cl)c2)nc1N1CCC(CN)C1 (stereo not drawn) [Compound 60]
1 to 10 µM,,10 to 50 µM,Cc1ccc(-c2ncc(CN3CCN(C)C3=O)c(N3CCC(CN)C3)n2)cc1Cl (stereo not drawn) [Compound 120]
1 to 10 µM,,1 to 10 µM,Cc1ccc(-c2ncc(CNC(=O)C3(F)CC3)c(N3CC[C@H](CN)C3)n2)cc1Cl [Compound 93]
1 to 10 µM,,1 to 10 µM,Cc1ccc(-c2ncc(CN(C)C(=O)C3(F)CC3)c(N3CCNCC3)n2)cc1Cl [Compound 98]
1 to 10 µM,,10 to 50 µM,N#CC1(C(=O)NCc2cnc(-c3ccc(Cl)c(C(F)(F)F)c3)nc2N2C[C@@H](N)[C@H](O)C2)CC1 [Compound 37]
1 to 10 µM,,1 to 10 µM,"Cc1ccc(-c2ncc(CN3CCOC3=O)c(N3CCC(CN)C3)n2)cc1Cl (stereo not drawn) [Compound 121, 3-[[4-[3-(aminomethyl)pyrrolidin-1-yl]-2-(3-chloro-4-methyl-phenyl)pyrimidin-5-yl]methyl]oxazolidin-2-one]"
1 to 10 µM,,0.1 to 1 µM,Cc1ccc(-c2ncc(C3=CCNC3)c(N3CCC(CN)C3)n2)cc1C(F)(F)F (stereo not drawn) [Compound 32]
1 to 10 µM,,10 to 50 µM,N#CC1(C(=O)NCc2cnc(-c3ccc(Cl)c(C(F)(F)F)c3)nc2OC2CCNC2)CC1 (stereo not drawn) [Compound 38]
